Test results published in ChEMBL document CHEMBL1201862, “PubChem BioAssay data set” (2004).
Activity calls are given as the source filed them.

What was measured:
cells [1] = test: cells
[2] = Late stage counterscreen for inhibitors of Trypanosoma brucei methionyl tRNA synthetase (MetRS): Luminescence-based cell-based high throughput dose response assay to identify compounds that are cytotoxic to Jurkat human T lymphocyte cells.; type: functional
[3] = IC50 of Artemis nuclease activity blockers – biochemical, fluorescence intensity, dose response (AID 720701); type: functional;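 further: Artemis endonuclease enzyme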
Bcl-2-like protein 10 = Bcl-2-like protein 10 (Homo sapiens, UniProt Q9HD36); test: Bcl-B/TR3 peptide binding disruption – biochemical, fluorescence polarization, FITC-TR3 peptide, selectivity assay for Bfl-1 inhibitor project, primary screen (AID 748);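 further: fluorescence polarization from a fluorescein-labelled TR3 peptide binding purified Bcl-B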
[4] = toxicity toward HepG2 hepatoma cells – cell-based, dry powder samples, cytotoxicity control, dose response (AID 720568); type: functional
BJ [5] = test: BJ-TERT-LT-ST fibroblast viability loss – cell-based, RAS-independent, luminescence, dose response (AID 1935); type: functional; details: Homo sapiens;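 further: BJ fibroblasts immortalized with TERT plus LT and ST oncogenes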
[6] = toxicity toward HEK293 cells – cell-based, dry powder samples, cytotoxicity control, dose response (AID 720567); type: functional
[7] = DRD fibroblast viability loss – cell-based, non-viral oncogenic, luminescence, dose response (AID 1934); type: functional; details: Homo sapiens
BJ [8] = test: BJ-TERT fibroblast viability loss – cell-based, RAS-independent, luminescence, dose response (AID 1933); type: functional; details: Homo sapiens
BJ [9] = test: cells; type: functional, cell-based; details: Homo sapiens
[10] = target: Protein disulfide-isomerase A6 (Homo sapiens, UniProt Q15084); test: reduced insulin turbidity driven by ERp5 (PDIA6) – biochemical, absorbance 650 nm, cherry-picked samples, dose response (AID 720566)
cells [11] = details: A549
[12] = target: T1, Runt-related transcription factor 1/Core-binding factor subunit beta (Homo sapiens, UniProt Q01196+Q13951); test: Runt domain/CBFb-SMMHC interaction disruptors – biochemical, TR-FRET (AID 1438); type: protein assay
cells [13] = details: HEK293
[14] = target: T1, Runt-related transcription factor 1/Core-binding factor subunit beta; test: disruptors of Runt domain/CBFb-SMMHC interaction – biochemical, FRET, Cerulean-Runt, Venus-CBFb-SMMHC, uHTS, […] (AID 1434); type: protein assay
[15] = Trypanosoma cruzi growth suppression in host cells – NIH3T3 host cells, beta-gal luminescence, confirmation (AID 2044); type: functional, cell-based;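 further: intracellular parasites grown in NIH/3T3 mouse fibroblasts as host cells; luminescent beta-galactosidase reporter signal from transgenic T. cruzi replicating inside host cells; inhibitors lower the luminescence signal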
[16] = viability loss in HepG2 liver cells – cell-based, ATP luminescence, cherry-pick, set 6, cytotoxicity control, dose response (AID 1053125); type: functional
[17] = NIH3T3 cell viability loss – ATP luminescence, mouse fibroblasts, counter-screen, dose response (AID 2010); type: functional, cell-based;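 further: cells exposed to compound for about 90 hours before reading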
[18] = target: 1-phosphatidylinositol 4,5-bisphosphate phosphodiesterase gamma-1 (Homo sapiens, UniProt P19174); test: Counterscreen for inhibitors of phospholipase C isozymes (PLC-B3): Fluorescence-based biochemical high throughput dose response assay to identify inhibitors of phospholipase C isozymes (PLC-gamma1).
Vero = test: viability of Vero cells under compound – cytotoxicity control for flavivirus capping enzyme inhibitors (AID 588742); type: functional; details: Chlorocebus sabaeus
Cysteine protease ATG4B = Cysteine protease ATG4B (Homo sapiens, UniProt Q9Y4P1); type: functional;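 further: Fluorescence-based dose-response confirmation assay measuring inhibition of ATG4B activity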
[19] = target: Tyrosyl-DNA phosphodiesterase 2 (Homo sapiens, UniProt O95551); test: potency against TDP2 phosphodiesterase activity – biochemical, epi absorbance, IC50, dose response (AID 743297)
[20] = viability loss in HeLa cells – cytotoxicity control for MgcRacGAP inhibitor project, dose response (AID 624300); type: functional
[21] = target: T2, Histone-lysine N-methyltransferase NSD2 (Homo sapiens, UniProt O96028); type: biochemical
T2 sequence (O96028 whole entry): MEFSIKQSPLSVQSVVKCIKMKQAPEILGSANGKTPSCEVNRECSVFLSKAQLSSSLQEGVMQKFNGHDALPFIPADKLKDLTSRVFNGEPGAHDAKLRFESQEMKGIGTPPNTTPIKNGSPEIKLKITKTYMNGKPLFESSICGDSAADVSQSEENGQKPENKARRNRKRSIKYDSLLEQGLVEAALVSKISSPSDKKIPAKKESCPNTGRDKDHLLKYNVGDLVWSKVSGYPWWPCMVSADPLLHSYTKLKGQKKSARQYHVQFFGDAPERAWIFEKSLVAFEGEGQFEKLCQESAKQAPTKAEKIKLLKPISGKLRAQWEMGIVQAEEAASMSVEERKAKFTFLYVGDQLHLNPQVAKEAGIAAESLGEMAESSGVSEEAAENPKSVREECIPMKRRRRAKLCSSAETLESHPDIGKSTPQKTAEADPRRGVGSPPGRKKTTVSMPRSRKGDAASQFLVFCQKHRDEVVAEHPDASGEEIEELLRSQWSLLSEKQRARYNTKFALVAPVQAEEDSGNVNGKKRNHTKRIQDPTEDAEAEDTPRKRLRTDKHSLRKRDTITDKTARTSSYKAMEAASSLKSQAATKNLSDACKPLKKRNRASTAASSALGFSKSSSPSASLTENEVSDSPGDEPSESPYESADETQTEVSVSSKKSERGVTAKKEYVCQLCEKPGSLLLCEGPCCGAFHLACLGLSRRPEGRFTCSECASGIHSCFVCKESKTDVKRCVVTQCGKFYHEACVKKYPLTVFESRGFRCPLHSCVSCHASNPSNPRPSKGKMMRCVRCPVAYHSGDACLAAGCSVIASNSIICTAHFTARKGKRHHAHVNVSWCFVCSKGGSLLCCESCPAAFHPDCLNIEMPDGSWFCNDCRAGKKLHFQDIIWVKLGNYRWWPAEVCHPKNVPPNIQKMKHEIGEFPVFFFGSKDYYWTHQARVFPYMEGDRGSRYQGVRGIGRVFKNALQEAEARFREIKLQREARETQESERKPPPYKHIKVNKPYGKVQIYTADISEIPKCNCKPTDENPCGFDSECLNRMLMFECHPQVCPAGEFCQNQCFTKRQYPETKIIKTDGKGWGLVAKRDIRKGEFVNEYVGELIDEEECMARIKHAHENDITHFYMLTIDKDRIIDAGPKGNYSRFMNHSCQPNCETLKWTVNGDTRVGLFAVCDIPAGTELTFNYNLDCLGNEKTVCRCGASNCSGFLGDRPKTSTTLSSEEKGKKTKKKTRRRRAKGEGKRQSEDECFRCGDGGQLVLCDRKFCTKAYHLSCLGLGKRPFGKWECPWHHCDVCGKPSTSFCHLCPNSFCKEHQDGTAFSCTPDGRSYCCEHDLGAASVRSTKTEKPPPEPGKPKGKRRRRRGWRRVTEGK

[22] = Fluorescence-based cell-based high throughput dose response assay for inhibitors of the interaction of nucleotide-binding oligomerization domain containing 2 (NOD2) and the receptor-interacting serine-threonine kinase 2 (RIPK2).; type: functional; details: Homo sapiens
Phospholipase A2 = Phospholipase A2 (Homo sapiens, UniProt P04054); type: functional;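 further: confirmatory dose-response counterscreen on phospholipase A2, testing hits that came from an ultra-high-throughput screen for ATG4B inhibitors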
Beta-galactosidase = Beta-galactosidase (Escherichia coli, UniProt Q8VNN2); test: detection-enzyme interference by beta-gal modulators – biochemical, E. coli enzyme, set 3, artefact control for CCR6 antagonist project, dose response (AID 504712); type: functional
[23] = target: T3, Sentrin-specific protease 8 (Homo sapiens, UniProt Q96LD8); type: functional
T3 sequence (Q96LD8 whole entry): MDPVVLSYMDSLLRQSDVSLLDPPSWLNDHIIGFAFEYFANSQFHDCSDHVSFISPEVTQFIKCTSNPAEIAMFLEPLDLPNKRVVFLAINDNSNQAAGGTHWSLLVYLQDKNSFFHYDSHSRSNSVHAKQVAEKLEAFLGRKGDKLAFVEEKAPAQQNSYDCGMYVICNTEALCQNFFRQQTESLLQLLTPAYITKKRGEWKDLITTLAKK

[24] = target: 1-phosphatidylinositol 4,5-bisphosphate phosphodiesterase beta-3 (Homo sapiens, UniProt Q01970); test: Fluorescence-based biochemical high throughput dose response assay to identify inhibitors of phospholipase C isozymes (PLC-B3).
[25] = target: Heat shock protein HSP 90-alpha (Homo sapiens, UniProt P07900); type: functional, organism-based
[26] = target: T3, Sentrin-specific protease 8; type: functional; remark: listed apart in the source
Genome polyprotein = Genome polyprotein (dengue virus type 2, UniProt P29990); test: flavivirus cap methylation enzyme inhibition – biochemical, confirmation dose response, primary screen (AID 588689); type: functional
[27] = target: T4, Rac GTPase-activating protein 1 (Homo sapiens, UniProt Q9H0H5); test: blockers of MgcRacGAP-driven Rac1 GTP hydrolysis – biochemical, ADP Hunter fluorescence, primary and confirmatory, confirmation (AID 624330); type: functional
T4 sequence (Q9H0H5 whole entry): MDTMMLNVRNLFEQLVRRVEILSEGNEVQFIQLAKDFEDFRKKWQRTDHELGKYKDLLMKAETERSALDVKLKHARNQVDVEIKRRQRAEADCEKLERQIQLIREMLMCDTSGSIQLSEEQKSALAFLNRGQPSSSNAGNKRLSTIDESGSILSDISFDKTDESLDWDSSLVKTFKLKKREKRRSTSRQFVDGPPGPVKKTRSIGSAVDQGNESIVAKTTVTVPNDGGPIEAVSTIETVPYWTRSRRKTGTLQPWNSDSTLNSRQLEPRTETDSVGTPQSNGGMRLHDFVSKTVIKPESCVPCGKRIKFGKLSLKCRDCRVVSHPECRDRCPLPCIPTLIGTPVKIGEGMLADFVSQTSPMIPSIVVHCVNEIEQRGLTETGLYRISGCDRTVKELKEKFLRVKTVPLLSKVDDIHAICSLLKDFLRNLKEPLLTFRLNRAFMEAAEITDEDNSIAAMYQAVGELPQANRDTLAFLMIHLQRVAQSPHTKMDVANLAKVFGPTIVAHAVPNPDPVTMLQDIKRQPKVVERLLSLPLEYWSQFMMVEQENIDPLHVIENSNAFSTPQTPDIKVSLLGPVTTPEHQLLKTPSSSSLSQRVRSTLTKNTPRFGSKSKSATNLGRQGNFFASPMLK

Kallikrein-7 = Kallikrein-7 (Homo sapiens, UniProt P49862); test: Fluorescence Intensity-based biochemical primary high throughput dose response assay to identify activators of kallikrein-7 (K7) zymogen.
[28] = viability of BHK-21 cells – cell-based, secondary screen, cytotoxicity control for flavivirus guanylyltransferase probe project (AID 624078); type: functional
[29] = inhibitors of non-replicating M. tuberculosis, dose response, luciferase, dry powder (AID 651619); type: functional; details: Mycobacterium tuberculosis
[30] = inhibitors of non-replicating M. tuberculosis, dose response, luciferase, dry powder (AID 651620); type: functional; details: Mycobacterium tuberculosis
[31] = A549 cell viability loss – cherry-picked samples, cytotoxicity control, dose response (AID 1053184); type: functional, cell-based
Mu-type opioid receptor = Mu-type opioid receptor (Homo sapiens, UniProt P35372); test: Late-stage results from the probe development effort to identify antagonists of OPRK1: luminescence-based cell-based dose response OPRM1 counterscreen, Set 2.; type: functional
[32] = target: Kappa-type opioid receptor (Homo sapiens, UniProt P41145); test: Late-stage fluorescence-based cell-based dose response assay for antagonists of kappa opioid receptor 1 (OPRK1).; type: functional
[33] = target: Delta-type opioid receptor (Homo sapiens, UniProt P41143); test: Late-stage results from the probe development effort to identify antagonists of OPRK1: fluorescence-based cell-based dose response OPRD1 counterscreen, Set 2.; type: functional
[34] = target: Sphingosine 1-phosphate receptor 1 (Homo sapiens, UniProt P21453); test: Late-stage counterscreen for antagonists of kappa opioid receptor 1 (OPRK1): fluorescence-based cell-based dose response assay to identify antagonists of Sphingosine 1-Phosphate Receptor 1 (S1P1).; type: functional
Chain of Sphingosine 1-phosphate receptor 1 (P21453 whole entry): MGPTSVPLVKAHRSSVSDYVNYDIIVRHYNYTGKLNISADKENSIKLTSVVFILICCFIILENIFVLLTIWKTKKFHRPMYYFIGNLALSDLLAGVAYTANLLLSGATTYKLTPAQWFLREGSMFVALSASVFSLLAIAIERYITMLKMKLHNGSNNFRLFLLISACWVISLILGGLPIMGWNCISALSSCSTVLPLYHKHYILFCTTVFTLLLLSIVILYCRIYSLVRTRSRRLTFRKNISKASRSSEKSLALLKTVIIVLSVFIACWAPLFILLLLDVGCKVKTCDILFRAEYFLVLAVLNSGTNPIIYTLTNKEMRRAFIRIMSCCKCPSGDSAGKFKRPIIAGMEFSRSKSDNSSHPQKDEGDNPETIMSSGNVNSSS

T1 sequence (Q01196 whole entry, the tested form may be a part): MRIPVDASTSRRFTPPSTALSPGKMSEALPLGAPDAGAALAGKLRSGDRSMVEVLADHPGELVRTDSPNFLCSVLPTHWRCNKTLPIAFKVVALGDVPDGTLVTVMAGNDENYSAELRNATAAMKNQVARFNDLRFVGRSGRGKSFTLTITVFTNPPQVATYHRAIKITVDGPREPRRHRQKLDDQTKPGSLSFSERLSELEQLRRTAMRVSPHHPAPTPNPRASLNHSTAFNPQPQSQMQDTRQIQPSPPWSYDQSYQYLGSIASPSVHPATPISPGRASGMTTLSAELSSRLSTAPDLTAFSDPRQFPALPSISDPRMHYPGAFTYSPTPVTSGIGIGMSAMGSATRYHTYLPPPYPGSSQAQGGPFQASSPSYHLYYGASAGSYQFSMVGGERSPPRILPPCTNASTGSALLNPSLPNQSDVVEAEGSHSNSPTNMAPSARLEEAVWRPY
T1 sequence (Q13951 whole entry, the tested form may be a part): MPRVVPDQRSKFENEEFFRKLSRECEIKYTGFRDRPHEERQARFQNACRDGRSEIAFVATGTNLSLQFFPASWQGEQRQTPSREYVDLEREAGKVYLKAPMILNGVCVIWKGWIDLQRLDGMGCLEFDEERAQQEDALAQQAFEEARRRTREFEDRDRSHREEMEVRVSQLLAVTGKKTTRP
Chain of Protein disulfide-isomerase A6 (Q15084 whole entry): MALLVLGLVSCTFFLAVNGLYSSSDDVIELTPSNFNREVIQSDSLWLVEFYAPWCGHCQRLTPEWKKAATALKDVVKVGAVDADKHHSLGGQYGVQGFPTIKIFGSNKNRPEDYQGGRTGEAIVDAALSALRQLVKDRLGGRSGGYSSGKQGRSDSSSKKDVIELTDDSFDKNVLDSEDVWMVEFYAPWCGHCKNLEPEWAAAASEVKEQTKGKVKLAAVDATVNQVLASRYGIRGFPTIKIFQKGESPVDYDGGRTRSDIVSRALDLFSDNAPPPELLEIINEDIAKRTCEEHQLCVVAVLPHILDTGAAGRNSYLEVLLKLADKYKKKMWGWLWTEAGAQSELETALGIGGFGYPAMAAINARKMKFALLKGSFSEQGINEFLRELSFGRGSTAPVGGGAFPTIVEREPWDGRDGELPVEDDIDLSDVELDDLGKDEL
Chain of Bcl-2-like protein 10 (Q9HD36 whole entry): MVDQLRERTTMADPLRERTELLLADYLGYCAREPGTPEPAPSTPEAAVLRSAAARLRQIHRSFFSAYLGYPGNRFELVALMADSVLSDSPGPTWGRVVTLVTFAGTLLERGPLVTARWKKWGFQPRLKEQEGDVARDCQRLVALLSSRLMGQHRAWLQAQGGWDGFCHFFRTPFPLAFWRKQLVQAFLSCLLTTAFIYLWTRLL
Chain of Mu-type opioid receptor (P35372 whole entry): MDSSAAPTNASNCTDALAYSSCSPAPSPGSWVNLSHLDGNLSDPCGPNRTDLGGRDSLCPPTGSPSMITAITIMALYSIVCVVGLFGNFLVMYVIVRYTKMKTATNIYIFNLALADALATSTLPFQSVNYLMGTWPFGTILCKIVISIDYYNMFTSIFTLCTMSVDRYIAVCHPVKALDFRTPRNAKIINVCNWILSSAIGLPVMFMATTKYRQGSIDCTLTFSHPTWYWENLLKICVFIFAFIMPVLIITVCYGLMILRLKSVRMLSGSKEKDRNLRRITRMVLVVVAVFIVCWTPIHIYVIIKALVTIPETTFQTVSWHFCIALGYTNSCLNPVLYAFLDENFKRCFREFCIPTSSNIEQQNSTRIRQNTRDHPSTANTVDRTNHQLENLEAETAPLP
Chain of 1-phosphatidylinositol 4,5-bisphosphate phosphodiesterase beta-3 (Q01970 whole entry): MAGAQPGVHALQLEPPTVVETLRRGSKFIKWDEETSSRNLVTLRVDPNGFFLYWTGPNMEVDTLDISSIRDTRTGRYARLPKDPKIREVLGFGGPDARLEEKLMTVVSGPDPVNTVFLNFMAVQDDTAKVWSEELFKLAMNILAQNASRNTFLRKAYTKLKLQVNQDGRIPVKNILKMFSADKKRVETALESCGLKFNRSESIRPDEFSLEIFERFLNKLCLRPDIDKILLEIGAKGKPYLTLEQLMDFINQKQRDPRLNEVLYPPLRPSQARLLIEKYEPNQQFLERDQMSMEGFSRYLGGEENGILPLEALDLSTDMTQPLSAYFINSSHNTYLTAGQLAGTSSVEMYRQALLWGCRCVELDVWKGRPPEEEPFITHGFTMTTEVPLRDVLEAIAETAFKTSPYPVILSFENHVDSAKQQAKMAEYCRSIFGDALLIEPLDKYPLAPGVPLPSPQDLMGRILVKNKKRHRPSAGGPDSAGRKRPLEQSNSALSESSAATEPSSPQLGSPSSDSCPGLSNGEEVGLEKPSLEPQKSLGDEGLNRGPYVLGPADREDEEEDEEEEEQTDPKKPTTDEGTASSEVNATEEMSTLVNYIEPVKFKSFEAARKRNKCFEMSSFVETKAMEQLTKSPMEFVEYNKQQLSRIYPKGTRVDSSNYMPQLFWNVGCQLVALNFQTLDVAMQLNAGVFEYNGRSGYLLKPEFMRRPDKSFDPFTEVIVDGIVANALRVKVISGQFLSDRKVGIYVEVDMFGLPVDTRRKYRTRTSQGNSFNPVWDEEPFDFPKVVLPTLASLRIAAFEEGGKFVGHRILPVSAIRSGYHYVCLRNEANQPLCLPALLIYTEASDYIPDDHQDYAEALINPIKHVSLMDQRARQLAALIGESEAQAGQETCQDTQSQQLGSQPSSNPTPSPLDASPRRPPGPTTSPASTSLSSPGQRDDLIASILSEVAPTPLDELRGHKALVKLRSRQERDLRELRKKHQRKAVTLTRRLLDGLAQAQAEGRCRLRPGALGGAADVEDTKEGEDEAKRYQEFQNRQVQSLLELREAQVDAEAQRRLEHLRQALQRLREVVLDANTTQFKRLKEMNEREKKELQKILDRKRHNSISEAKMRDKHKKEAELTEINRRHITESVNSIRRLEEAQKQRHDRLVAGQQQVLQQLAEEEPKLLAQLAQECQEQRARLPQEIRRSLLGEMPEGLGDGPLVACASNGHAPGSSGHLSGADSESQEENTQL
Chain of Kallikrein-7 (P49862 whole entry): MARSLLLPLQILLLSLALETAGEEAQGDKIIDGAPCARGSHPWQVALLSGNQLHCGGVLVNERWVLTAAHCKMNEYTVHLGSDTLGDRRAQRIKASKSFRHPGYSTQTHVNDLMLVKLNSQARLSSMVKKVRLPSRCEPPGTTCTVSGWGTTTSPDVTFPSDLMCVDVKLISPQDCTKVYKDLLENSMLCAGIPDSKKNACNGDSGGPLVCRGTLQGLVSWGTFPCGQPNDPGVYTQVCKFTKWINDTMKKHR
Chain of Phospholipase A2 (P04054 whole entry): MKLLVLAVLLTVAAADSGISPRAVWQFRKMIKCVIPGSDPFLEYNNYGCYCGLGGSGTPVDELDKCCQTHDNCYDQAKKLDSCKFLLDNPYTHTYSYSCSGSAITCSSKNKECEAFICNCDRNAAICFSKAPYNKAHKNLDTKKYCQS
Chain of Cysteine protease ATG4B (Q9Y4P1 whole entry): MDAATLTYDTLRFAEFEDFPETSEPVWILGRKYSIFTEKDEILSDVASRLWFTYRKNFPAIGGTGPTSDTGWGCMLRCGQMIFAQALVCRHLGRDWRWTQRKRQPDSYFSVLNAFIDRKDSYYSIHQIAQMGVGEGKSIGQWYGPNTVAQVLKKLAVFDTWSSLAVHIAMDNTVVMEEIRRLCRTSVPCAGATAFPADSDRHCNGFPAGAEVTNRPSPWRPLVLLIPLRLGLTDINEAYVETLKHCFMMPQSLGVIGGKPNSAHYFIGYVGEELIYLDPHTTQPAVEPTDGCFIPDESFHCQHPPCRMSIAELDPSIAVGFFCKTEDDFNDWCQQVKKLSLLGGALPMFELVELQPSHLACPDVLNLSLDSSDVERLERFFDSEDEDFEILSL
Chain of Tyrosyl-DNA phosphodiesterase 2 (O95551 whole entry): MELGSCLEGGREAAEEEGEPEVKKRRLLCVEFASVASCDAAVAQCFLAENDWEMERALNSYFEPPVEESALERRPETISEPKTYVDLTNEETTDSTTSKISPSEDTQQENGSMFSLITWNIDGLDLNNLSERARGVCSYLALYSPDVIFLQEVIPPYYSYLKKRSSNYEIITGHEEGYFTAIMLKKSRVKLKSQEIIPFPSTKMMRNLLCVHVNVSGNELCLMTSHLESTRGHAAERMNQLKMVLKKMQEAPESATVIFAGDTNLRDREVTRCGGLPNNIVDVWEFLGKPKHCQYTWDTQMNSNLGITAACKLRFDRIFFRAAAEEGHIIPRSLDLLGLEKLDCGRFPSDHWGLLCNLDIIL
Chain of Kappa-type opioid receptor (P41145 whole entry): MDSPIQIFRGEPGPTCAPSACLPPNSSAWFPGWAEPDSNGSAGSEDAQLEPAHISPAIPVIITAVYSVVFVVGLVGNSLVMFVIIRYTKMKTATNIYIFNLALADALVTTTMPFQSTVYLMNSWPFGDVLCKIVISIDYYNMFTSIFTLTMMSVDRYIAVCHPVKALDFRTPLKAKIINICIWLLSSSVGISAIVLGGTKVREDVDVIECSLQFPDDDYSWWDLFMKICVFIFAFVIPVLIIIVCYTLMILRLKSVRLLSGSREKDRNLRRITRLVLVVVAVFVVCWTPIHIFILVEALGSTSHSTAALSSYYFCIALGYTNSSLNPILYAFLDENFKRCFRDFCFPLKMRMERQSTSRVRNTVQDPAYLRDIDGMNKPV

Compound: O=C(O)c1ccc(-c2ccc(/C=C3\NC(=O)N(Cc4ccc(Cl)cc4)C3=O)o2)cc1
- AC50 (cells [1]): 1.78 µM (active)

Compound: O=C(CC=NOCc1ccc([N+](=O)[O-])cc1)Nc1ccc(Br)cc1
- IC50 [2]: > 83.3 µM (inactive)

Compound: Cc1cc(OCC(=O)Nc2ccc(N3CCCC3)cc2)cc(C)c1Cl
- IC50 [3]: > 20 µM (inactive)
- IC50 (Bcl-2-like protein 10): > 100 µM (inactive)

Compound: COc1cc(C(=O)NCCOc2cc(C)cc(C)c2)cc(OC)c1OC
- AC50 [4]: 24.7 µM (active)
- EC50 (BJ [5]): 17.1 µM (inconclusive)
- AC50 [6]: 16.9 µM (active)
- EC50 [7]: 4.9 µM (active)
- EC50 (BJ [8]): 16.3 µM (active)
- EC50 (BJ [9]): 5.25 µM (active)

Compound: Cc1cc(OCCCCOc2ccc(S(N)(=O)=O)c(C)c2)ccc1S(N)(=O)=O
- AC50 [10]: 45.5 µM (active)

Compound: COc1ccc(C2c3ccc(O)cc3Oc3ncn4nc(-c5ccccn5)nc4c32)cc1 (stereo not drawn)
- AC50 (cells [11]): > 52 µM (inactive)
- IC50 [12]: > 100 µM (inactive)
- AC50 (cells [13]): > 24 µM (inactive)
- IC50 [14]: 22.9 µM (active)

Compound: N#Cc1c2ccc(O)cc2n2ccccc12
- EC50 [15]: 0.68 µM (active)
- AC50 (cells [13]): > 52 µM (inactive)
- AC50 [16]: > 52 µM (inactive)
- EC50 [17]: > 60 µM (not active)

Compound: O=C1C(=C(I)I)c2ccccc2-c2ccccc21
- IC50 [18]: > 122 µM (inactive)
- CC50 (Vero): 15.3 µM (active)
- IC50 (Cysteine protease ATG4B): 7.13 µM (active)
- IC50 [19]: 8.29 µM (active)
- CC50 [20]: 27.4 µM (active)
- AC50 [21]: 2.24 µM (active)
- IC50 [22]: 1.2 µM (active)
- IC50 (Phospholipase A2): 58.1 µM (inactive)
- IC50 (Beta-galactosidase): > 66.6 µM (inactive)
- IC50 [23]: 1.74 µM (active)
- IC50 [24]: > 122 µM (inactive)
- AC50 [25]: 5.65 µM (active)
- IC50 [26]: > 100 µM (inactive)
- IC50 (Genome polyprotein): 29 µM (active)
- IC50 [27]: 19.8 µM (active)

Compound: C=C(C)Cn1c2ccc(NC(=O)NCc3ccccc3)cc2c(=O)n1C
- EC50 (Kallikrein-7): > 69.5 µM (inactive)

Compound: Cc1ccc(S(=O)(=O)Nc2cc(Sc3nc(C)cc(C)n3)c(O)c3ccccc23)cc1
- CC50 [28]: 20.9 µM (active)

Compound: Fc1ccc(CSc2nnc(-c3ccc(Cl)cc3)o2)cc1
- IC90 [29]: 2 µM (active)
- IC90 [30]: 2 µM (active)

Compound: C[C@@H]1CN([C@@H](C)CO)C(=O)Cc2cc(NC(=O)C3CCCCC3)ccc2O[C@@H]1CN(C)Cc1ccc(Cl)c(Cl)c1
- AC50 [31]: 37.8 µM (active)

Compound: Clc1ccc2c(Nc3ccc4c(c3)OCO4)ccnc2c1
- IC50 (Mu-type opioid receptor): > 50 µM (inactive)
- IC50 [32]: 13.8 µM (inactive)
- IC50 [33]: > 50 µM (inactive)
- IC50 [34]: > 50 µM (inactive)
